Measured values published in ChEMBL document CHEMBL1133438, “Potent acetylcholinesterase inhibitors: design, synthesis and structure-activity relationships of alkylene linked bis-galanthamine and galanthamine-galanthaminium salts” (Bioorg Med Chem Lett, 2000).

Each compound was assayed against Acetylcholinesterase (Electrophorus electricus, UniProt O42275) (assay: Compound was assessed for in vitro inhibition of Acetylcholinesterase isolated from Electrophorus electricus).
Sequence of Acetylcholinesterase (O42275 whole entry): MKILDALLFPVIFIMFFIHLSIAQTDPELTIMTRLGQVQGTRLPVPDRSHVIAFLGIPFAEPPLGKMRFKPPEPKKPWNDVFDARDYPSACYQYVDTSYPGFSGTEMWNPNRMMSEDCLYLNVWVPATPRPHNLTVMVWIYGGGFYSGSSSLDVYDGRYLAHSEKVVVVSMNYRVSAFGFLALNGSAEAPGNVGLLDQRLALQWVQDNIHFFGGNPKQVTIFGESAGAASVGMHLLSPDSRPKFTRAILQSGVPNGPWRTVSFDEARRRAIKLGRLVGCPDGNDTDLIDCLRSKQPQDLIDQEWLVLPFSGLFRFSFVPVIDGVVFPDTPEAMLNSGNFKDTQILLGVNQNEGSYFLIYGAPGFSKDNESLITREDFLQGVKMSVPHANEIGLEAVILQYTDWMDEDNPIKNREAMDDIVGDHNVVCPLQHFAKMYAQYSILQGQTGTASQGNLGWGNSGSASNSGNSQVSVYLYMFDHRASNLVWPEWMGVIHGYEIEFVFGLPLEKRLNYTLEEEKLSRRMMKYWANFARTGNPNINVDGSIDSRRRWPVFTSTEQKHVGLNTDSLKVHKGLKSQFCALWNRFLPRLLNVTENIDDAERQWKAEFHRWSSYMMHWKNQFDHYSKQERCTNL
`COc1ccc2c3c1OC1C[C@@H](O)C=C[C@@]31CC[N+](CCCCCCN1CC[C@@]34C=C[C@H](O)C[C@@H]3Oc3c(OC)ccc(c34)C1)=C2` (stereo partly specified) showed an IC50 of 68 nM.
Work on `COc1ccc2c3c1OC1C[C@@H](O)C=C[C@@]31CC[N+](CCCCCCCCCCN1CC[C@@]34C=C[C@H](O)C[C@@H]3Oc3c(OC)ccc(c34)C1)=C2` (stereo partly specified) yielded an IC50 of 12 nM.
With `COc1ccc2c3c1OC1C[C@@H](O)C=C[C@@]31CCN(CCCCCCN1CC[C@@]34C=C[C@H](OC)C[C@@H]3Oc3c(OC)ccc(c34)C1)C2` (stereo partly specified) the IC50 was 450 nM.
`COc1ccc2c3c1OC1C[C@@H](O)C=C[C@@]31CCN(CCCCCCCCCCN1CC[C@@]34C=C[C@H](OC)C[C@@H]3Oc3c(OC)ccc(c34)C1)C2` (stereo partly specified) was tested, and the IC50 was 560 nM.
For `COc1ccc2c3c1OC1C[C@@H](O)C=C[C@@]31CCN(CCCCCCCCN1CC[C@@]34C=C[C@H](OC)C[C@@H]3Oc3c(OC)ccc(c34)C1)C2` (stereo partly specified), the IC50 was 230 nM.
`COc1ccc2c3c1OC1C[C@@H](O)C=C[C@@]31CC[N+](CCCCCCCCN1CC[C@@]34C=C[C@H](O)C[C@@H]3Oc3c(OC)ccc(c34)C1)=C2` (stereo partly specified) was tested, and the IC50 was 22 nM.
